Experimental data taken from ChEMBL document CHEMBL3091424, “Anti-tubercular agents. Part 8: synthesis, antibacterial and antitubercular activity of 5-nitrofuran based 1,2,3-triazoles” (Bioorg Med Chem Lett, 2013).
Converted amounts (≈) assume the structure as drawn. The source made the active and inactive calls. The calls are words filed in the database; no cut-off is given here.

Legend:
Raoultella planticola [1] = assay: Antimicrobial activity against Klebsiella planticola MTCC 530 after 24 hrs by well diffusion method; format: functional; conditions: MTCC 530, 24 h
Pseudomonas aeruginosa [2] = assay: Antimicrobial activity against Pseudomonas aeruginosa MTCC 2453 after 24 hrs by well diffusion method; format: functional; conditions: MTCC 2453, 24 h
Escherichia coli [3] = assay: Antimicrobial activity against Escherichia coli MTCC 739 after 24 hrs by well diffusion method; format: functional; conditions: MTCC 739, 24 h
Bacillus subtilis [4] = assay: Antimicrobial activity against Bacillus subtilis MTCC 121 after 24 hrs by well diffusion method; format: functional; conditions: MTCC 121, 24 h
Staphylococcus aureus [5] = assay: Antimicrobial activity against Staphylococcus aureus MLS-16 MTCC 2940 after 24 hrs by well diffusion method; format: functional; conditions: MLS-16 MTCC 2940, 24 h
Micrococcus luteus [6] = assay: Antimicrobial activity against Micrococcus luteus MTCC 2470 after 24 hrs by well diffusion method; format: functional; conditions: MTCC 2470, 24 h
Staphylococcus aureus [7] = assay: Antimicrobial activity against Staphylococcus aureus MTCC 96 after 24 hrs by well diffusion method; format: functional; conditions: MTCC 96, 24 h
Vero = assay: Cytotoxicity against african green monkey Vero cells; format: cell-based; conditions: Chlorocebus sabaeus
MRC5 = assay: Cytotoxicity against human MRC5 cells; format: cell-based
[8] = system: Mycobacterium tuberculosis; assay: Antimicrobial activity against Mycobacterium tuberculosis H37Rv after 3 weeks by broth dilution method; format: functional; conditions: for MIC: 504 h
Raoultella planticola [9] = assay: Antibiofilm activity against Klebsiella planticola MTCC 530 after 24 hrs by crystal violet assay; format: functional, organism-based; conditions: MTCC 530, 24 h
Staphylococcus aureus [10] = assay: Antibiofilm activity against Staphylococcus aureus MLS-16 MTCC 2940 after 24 hrs by crystal violet assay; format: functional, organism-based; conditions: MLS-16 MTCC 2940, 24 h
Staphylococcus aureus [11] = assay: Antibiofilm activity against Staphylococcus aureus MTCC 96 after 24 hrs by crystal violet assay; format: functional, organism-based; conditions: for IC50: MTCC 96, 24 h
Staphylococcus aureus [12] = assay: Antimicrobial activity against methicillin-resistant Staphylococcus aureus after 24 hrs by microdilution method; format: functional
Candida albicans [13] = assay: Antimicrobial activity against Candida albicans MTCC 3017 at 150 ug/ml after 24 hrs by well diffusion method; format: functional, organism-based
Raoultella planticola [14] = assay: Bactericidal activity against Klebsiella planticola MTCC 530 after 24 hrs; format: functional; conditions: MTCC 530, 24 h
Pseudomonas aeruginosa [15] = assay: Bactericidal activity against Pseudomonas aeruginosa MTCC 2453 after 24 hrs; format: functional; conditions: MTCC 2453, 24 h
Escherichia coli [16] = assay: Bactericidal activity against Escherichia coli MTCC 739 after 24 hrs; format: functional; conditions: MTCC 739, 24 h
Bacillus subtilis [17] = assay: Bactericidal activity against Bacillus subtilis MTCC 121 after 24 hrs; format: functional; conditions: MTCC 121, 24 h
Staphylococcus aureus [18] = assay: Bactericidal activity against Staphylococcus aureus MLS-16 MTCC 2940 after 24 hrs; format: functional; conditions: MLS-16 MTCC 2940, 24 h
Staphylococcus aureus [19] = assay: Bactericidal activity against Staphylococcus aureus MTCC 96 after 24 hrs; format: functional; conditions: MTCC 96, 24 h
Enterococcus faecalis = assay: Antimicrobial activity against vancomycin -resistant Enterococcus faecalis after 24 hrs by microdilution method; format: functional
Micrococcus luteus [20] = assay: Bactericidal activity against Micrococcus luteus MTCC 2470 after 24 hrs; format: functional; conditions: MTCC 2470, 24 h
[21] = system: Mycobacterium tuberculosis; assay: Ratio of linezolid MIC to compound MIC for Mycobacterium tuberculosis H37Rv after 3 weeks by broth dilution method; format: functional
Candida albicans [22] = assay: microbe, parasite or virus in culture; conditions: MTCC 3017, 24 h
Description: Antimicrobial activity against Candida albicans MTCC 3017 after 24 hrs by well diffusion method

SMILES: COc1cc(Cn2cc(CNC(=O)c3ccc([N+](=O)[O-])o3)nn2)ccc1O
- MIC (Raoultella planticola [1]): 75 mg/L (≈ 201 µM)
- MIC (Pseudomonas aeruginosa [2]): > 150 mg/L
- MIC (Escherichia coli [3]): 37.5 mg/L (≈ 100 µM)
- MIC (Bacillus subtilis [4]): 4.68 mg/L (≈ 12.5 µM)
- MIC (Staphylococcus aureus [5]): 2.34 mg/L (≈ 6.27 µM)
- MIC (Micrococcus luteus [6]): 1.17 mg/L (≈ 3.13 µM)
- MIC (Staphylococcus aureus [7]): 18.8 mg/L (≈ 50.2 µM)
- IC50 (Vero): 224 µM
- IC50 (MRC5): 182 µM
- MIC [8]: 8 mg/L (≈ 21.4 µM)
- IC50 (Raoultella planticola [9]): 42.5 mg/L (≈ 114 µM)
- IC50 (Staphylococcus aureus [10]): 1.7 mg/L (≈ 4.55 µM)
- IC50 (Staphylococcus aureus [11]): 10.8 mg/L (≈ 28.9 µM)
- MIC (Staphylococcus aureus [12]): 16 mg/L (≈ 42.9 µM)
- Activity (Candida albicans [13]): inactive
- MBC (Raoultella planticola [14]): 75 mg/L (≈ 201 µM)
- MBC (Pseudomonas aeruginosa [15]): > 150 mg/L
- MBC (Escherichia coli [16]): 75 mg/L (≈ 201 µM)
- MBC (Bacillus subtilis [17]): 9.37 mg/L (≈ 25.1 µM)
- MBC (Staphylococcus aureus [18]): 4.68 mg/L (≈ 12.5 µM)
- MBC (Staphylococcus aureus [19]): 18.8 mg/L (≈ 50.2 µM)
- MIC (Enterococcus faecalis): > 64 mg/L
- MBC (Micrococcus luteus [20]): 2.34 mg/L (≈ 6.27 µM)

SMILES: COc1cc(Cn2cc(CNC(=O)c3ccc([N+](=O)[O-])o3)nn2)ccc1F
- MIC (Raoultella planticola [1]): 37.5 mg/L (≈ 99.9 µM)
- MIC (Pseudomonas aeruginosa [2]): > 150 mg/L
- MIC (Escherichia coli [3]): > 150 mg/L
- MIC (Bacillus subtilis [4]): 2.34 mg/L (≈ 6.23 µM)
- MIC (Staphylococcus aureus [5]): 9.37 mg/L (≈ 25 µM)
- MIC (Micrococcus luteus [6]): 1.17 mg/L (≈ 3.12 µM)
- MIC (Staphylococcus aureus [7]): > 150 mg/L
- IC50 (Vero): 225 µM
- IC50 (MRC5): 155 µM
- Activity [8]: inactive
- IC50 (Raoultella planticola [9]): 22.7 mg/L (≈ 60.5 µM)
- IC50 (Staphylococcus aureus [10]): 2.7 mg/L (≈ 7.19 µM)
- inhibition (Staphylococcus aureus [11]): inactive
- Activity (Candida albicans [13]): inactive
- MBC (Raoultella planticola [14]): 37.5 mg/L (≈ 99.9 µM)
- MBC (Pseudomonas aeruginosa [15]): > 150 mg/L
- MBC (Escherichia coli [16]): > 150 mg/L
- MBC (Bacillus subtilis [17]): 4.68 mg/L (≈ 12.5 µM)
- MBC (Staphylococcus aureus [18]): 9.37 mg/L (≈ 25 µM)
- MBC (Staphylococcus aureus [19]): > 150 mg/L
- MBC (Micrococcus luteus [20]): 1.17 mg/L (≈ 3.12 µM)

SMILES: CC(=O)NC[C@H]1CN(c2ccc(N3CCOCC3)c(F)c2)C(=O)O1 [LINEZOLID]
- MIC [8]: 1 mg/L (≈ 2.96 µM)
- MIC (Staphylococcus aureus [12]): 8 mg/L (≈ 23.7 µM)

SMILES: O=C(NCc1cn(Cc2ccc(F)c(Cl)c2)nn1)c1ccc([N+](=O)[O-])o1
- Ratio [21]: 4
- MIC (Raoultella planticola [1]): 18.8 mg/L (≈ 49.4 µM)
- MIC (Pseudomonas aeruginosa [2]): > 150 mg/L
- MIC (Escherichia coli [3]): 18.8 mg/L (≈ 49.4 µM)
- MIC (Bacillus subtilis [4]): 1.17 mg/L (≈ 3.08 µM)
- MIC (Staphylococcus aureus [5]): 2.34 mg/L (≈ 6.16 µM)
- MIC (Micrococcus luteus [6]): 2.34 mg/L (≈ 6.16 µM)
- MIC (Staphylococcus aureus [7]): 18.8 mg/L (≈ 49.4 µM)
- IC50 (Vero): 344 µM
- IC50 (MRC5): 254 µM
- MIC [8]: 0.25 mg/L (≈ 0.658 µM)
- IC50 (Raoultella planticola [9]): 12.2 mg/L (≈ 32.1 µM)
- IC50 (Staphylococcus aureus [10]): 1.1 mg/L (≈ 2.9 µM)
- IC50 (Staphylococcus aureus [11]): 13.6 mg/L (≈ 35.8 µM)
- MIC (Staphylococcus aureus [12]): 8 mg/L (≈ 21.1 µM)
- Activity (Candida albicans [13]): inactive
- MBC (Raoultella planticola [14]): 37.5 mg/L (≈ 98.8 µM)
- MBC (Pseudomonas aeruginosa [15]): > 150 mg/L
- MBC (Escherichia coli [16]): 18.8 mg/L (≈ 49.4 µM)
- MBC (Bacillus subtilis [17]): 1.17 mg/L (≈ 3.08 µM)
- MBC (Staphylococcus aureus [18]): 2.34 mg/L (≈ 6.16 µM)
- MBC (Staphylococcus aureus [19]): 18.8 mg/L (≈ 49.4 µM)
- MIC (Enterococcus faecalis): > 64 mg/L
- MBC (Micrococcus luteus [20]): 2.34 mg/L (≈ 6.16 µM)

SMILES: COc1ccc(Cn2cc(CNC(=O)c3ccc([N+](=O)[O-])o3)nn2)cc1O
- MIC (Raoultella planticola [1]): 18.8 mg/L (≈ 50.2 µM)
- MIC (Pseudomonas aeruginosa [2]): > 150 mg/L
- MIC (Escherichia coli [3]): 37.5 mg/L (≈ 100 µM)
- MIC (Bacillus subtilis [4]): 9.37 mg/L (≈ 25.1 µM)
- MIC (Staphylococcus aureus [5]): 9.37 mg/L (≈ 25.1 µM)
- MIC (Micrococcus luteus [6]): 9.37 mg/L (≈ 25.1 µM)
- MIC (Staphylococcus aureus [7]): 37.5 mg/L (≈ 100 µM)
- IC50 (Vero): 174 µM
- IC50 (MRC5): 189 µM
- Activity [8]: inactive
- IC50 (Raoultella planticola [9]): 11.3 mg/L (≈ 30.3 µM)
- IC50 (Staphylococcus aureus [10]): 5.1 mg/L (≈ 13.7 µM)
- IC50 (Staphylococcus aureus [11]): 10.3 mg/L (≈ 27.6 µM)
- Activity (Candida albicans [13]): inactive
- MBC (Raoultella planticola [14]): 18.8 mg/L (≈ 50.2 µM)
- MBC (Pseudomonas aeruginosa [15]): > 150 mg/L
- MBC (Escherichia coli [16]): 75 mg/L (≈ 201 µM)
- MBC (Bacillus subtilis [17]): 18.8 mg/L (≈ 50.2 µM)
- MBC (Staphylococcus aureus [18]): 18.8 mg/L (≈ 50.2 µM)
- MBC (Staphylococcus aureus [19]): 75 mg/L (≈ 201 µM)
- MBC (Micrococcus luteus [20]): 9.37 mg/L (≈ 25.1 µM)

SMILES: Clc1ccc(COC(Cn2ccnc2)c2ccc(Cl)cc2Cl)c(Cl)c1 (stereo not given) [MICONAZOLE]
- MIC (Candida albicans [22]): 9.37 mg/L (≈ 22.5 µM)

SMILES: CC[C@H]1OC(=O)[C@H](C)[C@@H](O[C@H]2C[C@@](C)(OC)[C@@H](O)[C@H](C)O2)[C@H](C)[C@@H](O[C@@H]2O[C@H](C)C[C@H](N(C)C)[C@H]2O)[C@](C)(O)C[C@@H](C)C(=O)[C@H](C)[C@@H](O)[C@]1(C)O [ERYTHROMYCIN]
- IC50 (Raoultella planticola [9]): 0.19 mg/L (≈ 0.259 µM)
- IC50 (Staphylococcus aureus [10]): 0.21 mg/L (≈ 0.286 µM)
- IC50 (Staphylococcus aureus [11]): 0.25 mg/L (≈ 0.341 µM)
